Counter-ions that a name gives are not always drawn.
How the values were obtained:
[1] = In situ perfusion: survival until experimental end-point; type: in vivo, Wistar rats; details: irinotecan 60 mg/kg single i.v.
[2] = irinotecan 60 mg/kg i.v. (HyCAMP 26.6/60); 90 minute time point
[3] = irinotecan 30 mg/kg i.v. (HyCAMP 26.6/30); 120 min
[4] = irinotecan 30 mg/kg i.v.
[5] = target: T1, tumour cell endogenous beta-glucuronidase (Homo sapiens, UniProt P08236); test: Endogenous beta-glucuronidase activity in tumour cell lysates incubated overnight with HA, compared to samples not containing hyaluronan; type: biochemical; details: modelled from ≧2 μg of HA per μg tumour cell protein and 0.135 ng protein/cell
T1 construct: Activity of Endogenous Beta-Glucuronidase in Tumor Cells In Vitro; endogenous in cells; host or cells: HCT-116, LIM-1215, LIM-2099, SK-CO1, SW-1222, HT-29, SW-620, MSTO-211H, MDA-MB-468, MDA-MB-435 lysates
T1 sequence (P08236 23-651): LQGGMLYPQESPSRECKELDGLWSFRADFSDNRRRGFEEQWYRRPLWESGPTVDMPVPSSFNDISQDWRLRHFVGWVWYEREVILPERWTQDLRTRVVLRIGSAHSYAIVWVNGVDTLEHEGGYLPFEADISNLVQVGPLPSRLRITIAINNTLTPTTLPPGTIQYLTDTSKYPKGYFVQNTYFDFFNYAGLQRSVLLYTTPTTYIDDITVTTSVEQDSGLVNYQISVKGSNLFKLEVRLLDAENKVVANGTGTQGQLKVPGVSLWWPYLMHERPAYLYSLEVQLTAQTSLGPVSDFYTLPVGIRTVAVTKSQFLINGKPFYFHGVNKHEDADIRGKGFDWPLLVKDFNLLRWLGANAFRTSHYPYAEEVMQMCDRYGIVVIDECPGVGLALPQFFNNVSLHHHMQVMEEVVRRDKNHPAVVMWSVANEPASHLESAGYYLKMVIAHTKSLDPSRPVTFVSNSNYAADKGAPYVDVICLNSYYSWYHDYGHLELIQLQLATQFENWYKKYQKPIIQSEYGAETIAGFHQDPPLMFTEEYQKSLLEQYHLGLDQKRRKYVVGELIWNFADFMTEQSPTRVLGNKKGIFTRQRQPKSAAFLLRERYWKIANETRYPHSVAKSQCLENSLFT
Description: Stocks of the tumor cell lysates (0.8 mg protein/ml) were prepared from the original cell lysates. The hyaluronan stock of 10 mg/ml (10 kDa & 860 kDa) was diluted with potassium phosphate buffer to achieve 8 mg/ml, 3.2 mg/ml, 1.6 mg/ml, 0.4 mg/ml, 0.2 mg/ml, 0.04 mg/ml, 0.02 mg/ml and 0.0008 mg/ml of hyaluronan. The 25 mg/ml of <2 kDa HA was diluted further with potassium phosphate buffer to achieve 8 mg/ml, 3.2 mg/ml, 1.6 mg/ml, 0.4 mg/ml, 0.2 mg/ml, 0.04 mg/ml, 0.02 mg/ml and 0.0008 mg/ml of hyaluronan. The assay samples were prepared by aliquoting 125 μl of the different dilutions of hyaluronan to an Eppendorf tube containing 125 μl of 0.8 mg protein/ml cell lysates of the following cell lines; HCT-116, LIM-1215, LIM-2099, SK-CO1, SW-1222, HT-29, SW-620, MSTO-211H, MDA-MB-468 and MDA-MB-435. […] On completion of the incubation, the samples were thoroughly mixed by repeated invert mixing (˜20 times) after which the beta-glucuronidase was quantified using the 96-well-plate method.
The assay was performed in the wells of a black clear-bottom 96-well-plate where 50 μL of the tumour cell lysates (20 μg protein) were added to the wells and 50 μL of 75 mM of potassium phosphate buffer was used as the control blanking well. […] On completion of the incubation, 50 μL of stop buffer was added and the plate was read at 350 nm excitation and 450 nm emission on a Fluostar Optima plate reader.

Carboxylesterase = Carboxylesterase activity in tissue homogenates of the liver and the GI-tract; type: biochemical
Text: Carboxylesterase • 2. beta-glucuronidase
Tissue homogenates of the liver and the GI-tract were used as the source of each enzyme. […] In addition to this mechanism, inhibition of beta-glucuronidase in the lumen of the GI tract would prevent the generation of SN-38 from SN-38G.

[6] = in vivo
Text: HA. […] All body organs and fluids were removed, weighed and [^3H] radioactivity quanitated using β-scintillation counting.

Row | Compound | survival until experimental end-point [1] | cumulative biliary excretion of CPT-11 [2] | cumulative intestinal exsorption of CPT-11 [3] | quantities of SN-38 found in the spleen and lung [4] | HA per cell resulting in stimulation of endogenous beta-glucuronidase activity [5] | effect on carboxylesterase activity (Carboxylesterase) | HA per tumour cell [6] | HA that would accumulate per gram of tumour [6]
1 | CCc1c2c(nc3ccc(OC(=O)N4CCC(N5CCCCC5)CC4)cc13)-c1cc3c(c(=O)n1C2)COC(=O)[C@]3(O)CC [CPT-11, Irinotecan hydrochloride] | only one rat survived | 1388 µg | 525 µg | could not be detected | – | – | – | –
2 | hyaluronan [HA] | – | – | – | – | ≥ 270 pg HA/cell | did not affect the activity of carboxylesterase | 51.6 pg of HA/cell | approximately 51.6 mg
